Experimental data: article PMC10786919, “Design-rules for stapled peptides with in vivo activity and their application to Mdm2/X antagonists” (Nature Communications, 2024)
pEC50, pKd: −log10 of the molar value. Values after ≈ are worked out from the molar mass of the structure shown. Where two headings read alike, the source gives them in different places. Positions of bridges follow the written chain, without caps; N, C: chain ends. Non-standard residues stand in square brackets, D forms with d. Residues, ends and D or L forms follow the SMILES beside them. Lys(N3) = [N-]=[N+]=NCCCC[C@H](N)C(=O)O; R8 = C=CCCCCCC[C@@](C)(N)C(=O)O; Cba = N[C@@H](CC1CCC1)C(=O)O; S5 = C=CCCC[C@](C)(N)C(=O)O; Ahx = NCCCCCC(=O)O; βAla = NCCC(=O)O

Assays:
[1] = system: p53 responsive β-lactamase reporter in HCT116 cells; assay: cells; format: cell-based
Method in brief: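 Read-out used the ToxBLAzer Dual Screen for β-lactamase driven by a stably integrated p53-responsive reporter. Assay: 8000 HCT116 cells per well at 0.5% final DMSO. Reported numbers are geometric means over a minimum of three biological replicates.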

[2] = Lactate dehydrogenase (LDH) release assay; format: cell-based
Method in brief: (§1)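 LDH release, fluorometric membrane-integrity read-out; HCT116 with stable p53-responsive β-lactamase reporter; 8000 cells/well; 0.5% DMSO final; geometric mean, n≥3 biological replicates.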

HCT116 cells = assay: Lactate dehydrogenase (LDH) release assay; format: cell-based
Method in brief: as §1

[3] = system: Jump-In T-REx CHO-K1 BLA cells; assay: cells; format: cell-based; conditions: for pEC50: read-out: TETCHO: Counterscreen EC50
[4] = Solubility assay (kinetic solubility, PBS pH 7); format: physicochemical; conditions: pH 7, aqueous buffer, kinetic from dmso stock, pH 7, PBS; read-out: Solubility
Method in brief: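 Quantitation uses an external standard at 100 µM, prepared from 10 mM stock in acetonitrile:methanol:DMSO (10:80:10). Solubility (µM) = (peak area of sample ÷ peak area of standard) × standard concentration.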

[5] = Nanoclick permeability assay
Method in brief: (§2)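 Azido-peptide permeability was read as loss of NanoBRET signal (donor 450 nm, acceptor 610 nm) after adding NanoBret618-azide at 10 μM final.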

[6] = system: cells transiently transfected with the NanoLuc-HaloTag vector; assay: Nanoclick permeability assay; conditions: for Nanoclick permeability assay % Effect: 4Hr
Method in brief: as §2

[7] = Experimental LogD (partition coefficient); conditions: not stated, Partition Coeff LogD
human Mdm2 1–125 = molecular target: T1, human Mdm2 1–125 (Homo sapiens, UniProt Q00987); assay: Mdm2 binding by competitive fluorescence anisotropy assay (FP binding); conditions: read-out: FP binding assay KD
T1 construct: GST (N); His6 (internal); TEV cleavage site (ENLYFQG) (internal); made in house; host or cells: BL21 (DE3) Rosetta T1R Escherichia coli
Source text: The TEV (tobacco etch virus) cleavage site was changed from ENLYFQS to ENLYFQG to give a fusion protein with the following sequence:
[P] is the protein concentration (Mdm2), [L] is the labeled peptide concentration, r is the anisotropy measured, r0 is the anisotropy of the free peptide, rb is the anisotropy of the Mdm2–FAM-labeled peptide complex, Kd is the dissociation constant, [L]t is the total FAM labeled peptide concentration, and [P]t is the total Mdm2 concentration. […] This value was then used to determine apparent Kd values of the respective competing ligands in subsequent competition assays in fluorescence anisotropy experiments.
The competing molecules were then titrated against the complex of the FAM-labeled peptide and protein. Apparent Kd values were determined by fitting the experimental data to equations shown below:2 r=ro+(rb−ro)×2(d^2−3e)cos(θ/3)−9/3Kd1+2(d^2−3e)cos(θ/3)−d 3 d=Kd1+Kd2+[L]st+[L]t−Pt 4 e=Lt−PtKd1+Lst+PtKd2+Kd1Kd2 5 f=−Kd1Kd2[P]t 6 θ=arcos−2d^3+9de−27f/2(d^2−3e)^3
[L]st and [L]t denote labeled ligand and total unlabeled ligand input concentrations, respectively. Kd2 is the dissociation constant of the interaction between the unlabeled ligand and the protein. In all competition experiments, it is assumed that [P]t > [L]st, otherwise considerable amounts of free labeled ligand would always be present and would interfere with measurements. […] The FAM-labeled peptide was dissolved in dimethyl sulfoxide (DMSO) at 1 mM and diluted into experimental buffer. Readings were carried out with an Envision Multilabel Reader (PerkinElmer). […] Curve-fitting was carried out using Prism 4.0 (GraphPad). […] Negative control titrations of the ligands under investigation were also carried out with the fluorescently labeled peptide (in the absence of Mdm2) to ensure no interactions were occurring between the ligands and the FAM-labeled peptide. […] Measurements were taken a minimum of three times (biological replicates) and values are reported as geometric means of the replicates.

EPSA = format: physicochemical; conditions: EPSA
[8] = 0% FBS 4Hr, read-out: p53 reporter assay EC50

T1 sequence (Q00987 with tags, fused parts or gaps): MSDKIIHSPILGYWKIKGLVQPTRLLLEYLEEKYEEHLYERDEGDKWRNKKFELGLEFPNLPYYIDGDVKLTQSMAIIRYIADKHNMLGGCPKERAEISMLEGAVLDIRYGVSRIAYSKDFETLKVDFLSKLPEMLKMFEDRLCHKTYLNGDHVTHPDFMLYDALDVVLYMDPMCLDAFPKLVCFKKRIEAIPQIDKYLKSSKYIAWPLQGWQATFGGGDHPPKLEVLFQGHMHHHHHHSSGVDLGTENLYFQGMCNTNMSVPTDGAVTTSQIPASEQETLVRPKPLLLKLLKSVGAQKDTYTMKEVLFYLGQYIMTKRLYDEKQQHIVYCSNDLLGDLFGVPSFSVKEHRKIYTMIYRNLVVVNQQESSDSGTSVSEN

In the case of `CC(=O)N[C@@H](CCCCN=[N+]=[N-])C(=O)NCCC(=O)N[C@@H](CC(C)C)C(=O)N[C@H](C(=O)N[C@@H](Cc1ccccc1)C(=O)N[C@]1(C)CCCCCCC=CCCC[C@@](C)(C(=O)N[C@@H](C)C(=O)N[C@@H](CCC(=O)O)C(=O)N[C@@H](C)C(=O)N[C@@H](C)C(=O)N[C@@H](C)C(=O)N[C@H](C)C(N)=O)NC(=O)[C@H](CC2CCC2)NC(=O)[C@H](CCC(N)=O)NC(=O)[C@H](C)NC(=O)[C@H](Cc2c[nH]c3ccccc23)NC(=O)[C@H](Cc2ccc(O)cc2)NC(=O)[C@H](CCC(=O)O)NC1=O)[C@@H](C)O` [MP-965, AZIDE-ATSP-7041 (E5A,S12A)] (Ac-[Lys(N3)][βAla]LTF[R8]EYWAQ[Cba][S5]AEAAA[dA]-NH2; staple 6-13), the “p53 reporter assay % Effect” value ([1]; 0% FBS 4Hr) was 97.76%, the pEC50 [1, 8] was 5.95 and the “p53 reporter assay % Effect” value ([1]; 10% FBS 16Hr) was 86.7%. For the same compound, the pEC50 ([1]; read-out: Cell EC50 (16 hr, 10% FBS), p53 reporter assay, 16 hr, 10% FBS) was 5.66, the pEC50 ([2]; 0% FBS 4Hr, read-out: LDH: Cytotoxicity assay EC50) was under 4.29 and the pEC50 ([2]; 10% FBS 16Hr, read-out: LDH: Cytotoxicity assay EC50) was under 4.29. The “LDH: Cytotoxicity assay % Effect” value (HCT116 cells; 0% FBS 4Hr) was -4.408%, the “LDH: Cytotoxicity assay % Effect” value (HCT116 cells; 10% FBS 16Hr) was 5.517% and the “TETCHO: Counterscreen % Effect” value ([3]; 0% FBS 4Hr) was -2.385%. The pEC50 ([3]; 0% FBS 4Hr) was under 4.30, the “TETCHO: Counterscreen % Effect” value ([3]; 10% FBS 16Hr) was -17.5% and the pEC50 ([3]; 10% FBS 16Hr) was under 4.30. The solubility kinetic [4] was 161 µM (≈ 358 µg/mL), the cell entry EC50 [5] was 0.581 µM and the “Nanoclick permeability assay % Effect” value [6] was 110.3%. For the same compound, the logD [7] was 2.69.
With `CC(=O)N[C@@H](CCCCN)C(=O)NCCCCCC(=O)N[C@H](C(=O)N[C@@H](CO)C(=O)N[C@@H](Cc1ccccc1)C(=O)N[C@]1(C)CCCCCCC=CCCC[C@@](C)(C(=O)N[C@@H](CCC(=O)O)C(=O)N[C@@H](CC(N)=O)C(=O)N[C@@H](Cc2ccccc2)C(N)=O)NC(=O)[C@H](CC(C)C)NC(=O)[C@H](CC(C)C)NC(=O)[C@H](C)NC(=O)[C@H](Cc2c[nH]c3ccccc23)NC(=O)[C@H](Cc2ccc(O)cc2)NC(=O)[C@H](CCC(=O)O)NC1=O)[C@@H](C)O` [MP-6210] the pKd (human Mdm2 1–125) was 7.17, the “p53 reporter assay: % Effect” value ([1]; 0% FBS 4Hr) was 115.9% and the pEC50 ([1]; 0% FBS 4Hr, read-out: p53 reporter assay: EC50) was 5.13. The pEC50 ([2]; LDH: Cytotoxicity assay: EC50) was under 4.29, the “LDH: Cytotoxicity assay: % Effect” value (HCT116 cells) was 13.27% and the “TETCHO: Counterscreen % Effect” value ([3]; 0% FBS 4Hr) was 57.09%. The pEC50 ([3]; 0% FBS 4Hr) was 4.36, the solubility kinetic [4] was 74 µM (≈ 155 µg/mL) and the EPSA (EPSA) was 255 A^2. The logD [7] was 2.55.
In the case of `CC(=O)N[C@@H](CCC(=O)O)C(=O)N[C@@H](CCC(=O)O)C(=O)N[C@@H](CCC(=O)O)C(=O)N[C@@H](CCCCN=[N+]=[N-])C(=O)NCCCCCC(=O)N[C@H](C(=O)N[C@@H](CO)C(=O)N[C@@H](Cc1ccccc1)C(=O)N[C@]1(C)CCCCCCC=CCCC[C@@](C)(C(N)=O)NC(=O)[C@H](CC(C)C)NC(=O)[C@H](CC(C)C)NC(=O)[C@H](C)NC(=O)[C@H](Cc2c[nH]c3ccccc23)NC(=O)[C@H](Cc2c[nH]c3ccccc23)NC(=O)[C@H](Cc2ccc(O)cc2)NC(=O)[C@H](CCC(=O)O)NC1=O)[C@@H](C)O` [MP-9662] (Ac-EEE[Lys(N3)][Ahx]TSF[R8]EYWWALL[S5]-NH2; staple 9-17), the pEC50 [1, 8] was under 4.30, the pEC50 ([2]; LDH: Cytotoxicity assay EC50) was under 4.30 and the “TETCHO: Counterscreen % Effect” value ([3]; 0% FBS 4Hr) was 0.684%. For the same compound, the pEC50 ([3]; 0% FBS 4Hr) was under 4.30, the “TETCHO: Counterscreen % Effect” value ([3]; 0% FBS 16Hr) was 0.2782% and the pEC50 ([3]; 0% FBS 16Hr) was under 4.30. For the same compound, the solubility kinetic [4] was 33 µM (≈ 76 µg/mL), the cell entry EC50 ([5]; Nanoclick permeability assay EC50) was 0.637 µM and the “Nanoclick permeability assay % Effect” value [6] was 111.3%. For the same compound, the logD [7] was 1.86.
For `CC(=O)N[C@@H](CCCCN=[N+]=[N-])C(=O)NCCC(=O)N[C@@H](CC(C)C)C(=O)N[C@H](C(=O)N[C@@H](Cc1ccccc1)C(=O)N[C@]1(C)CCCCCCC=CCCC[C@@](C)(C(=O)N[C@@H](CO)C(=O)N[C@@H](C)C(=O)N[C@@H](C)C(N)=O)NC(=O)[C@H](CC2CCC2)NC(=O)[C@H](CCC(N)=O)NC(=O)[C@H](C)NC(=O)[C@H](CCC(=O)O)NC(=O)[C@H](Cc2ccc(O)cc2)NC(=O)[C@H](CCC(=O)O)NC1=O)[C@@H](C)O` [Peptide W7E], the “shift of NanoClick permeability vs MP-081” value ([6]; Glu scan) was ~ 34 x.
